In US12679839B2, “Cyclin-dependent kinase 7 (CDK7) non-covalent inhibitors” (JANSSEN PHARMACEUTICA NV, priority 2020, dated 2026):

Key:
[1] = target: T1, CDK7/Cyclin H/MAT-1 complex (Homo sapiens, UniProt P50613); assay: Absorbance kinetic assay (20 nM CDK7/Cyclin H/MAT-1 complex); type: biochemical
T1 construct: Human CDK7 (amino acids 1-346); His6 (N); TEV protease cleavage site (N); made in house; host or cells: baculovirus-SF9 insect cells
How it was run: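 Trimeric complex (His6-TEV CDK7 1-346, MAT1 1-309, cyclin H 1-323) from Sf9 cells, at 20 nM, phosphorylating RNA Pol II-derived CDK7/9-tide; ADP coupled via PK/LDH to NADH depletion read at 340 nm every 2 min for 8 h. Steady-state slopes gave % inhibition; IC50 from 11-point Hill fit.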

[2] = target: T1, CDK7/Cyclin H/MAT-1 complex; assay: Flint assay, end-point fluorescence (5 nM CDK7/Cyclin H/MAT-1 complex); type: biochemical
How it was run: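 Trimeric complex of His6-TEV-tagged human CDK7 (1-346), MAT1 (1-309) and cyclin H (1-323), co-expressed in Sf9 cells, at 5 nM final, with substrates and coupling reagents as in the absorbance assay; 24 h reaction. End-point NADH fluorescence decrease (ex 340/em 440 nm); % inhibition versus no-inhibitor and full-inhibition controls, IC50 from four-parameter Hill fit.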

T1 sequence (P50613 whole entry, the tested form may be a part): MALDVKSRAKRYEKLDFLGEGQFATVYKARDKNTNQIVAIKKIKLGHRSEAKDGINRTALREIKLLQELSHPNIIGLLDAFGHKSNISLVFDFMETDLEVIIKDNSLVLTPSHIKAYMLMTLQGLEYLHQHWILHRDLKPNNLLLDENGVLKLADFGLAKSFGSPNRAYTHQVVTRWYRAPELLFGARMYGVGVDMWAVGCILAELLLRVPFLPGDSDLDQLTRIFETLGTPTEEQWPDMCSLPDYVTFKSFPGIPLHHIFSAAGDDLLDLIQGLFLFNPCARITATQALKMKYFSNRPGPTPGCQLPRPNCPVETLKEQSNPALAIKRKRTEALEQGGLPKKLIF
T1 sequence (P51946 whole entry partner, the tested form may be a part): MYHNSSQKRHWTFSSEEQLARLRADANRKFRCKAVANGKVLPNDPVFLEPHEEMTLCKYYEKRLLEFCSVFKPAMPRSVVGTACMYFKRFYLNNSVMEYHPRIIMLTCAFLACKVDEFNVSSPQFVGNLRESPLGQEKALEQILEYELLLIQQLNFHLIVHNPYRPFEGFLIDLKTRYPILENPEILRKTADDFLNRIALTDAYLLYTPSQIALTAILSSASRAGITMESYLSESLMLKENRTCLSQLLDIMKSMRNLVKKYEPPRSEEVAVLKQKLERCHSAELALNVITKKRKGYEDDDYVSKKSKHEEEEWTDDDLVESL
T1 sequence (P51948 whole entry partner, the tested form may be a part): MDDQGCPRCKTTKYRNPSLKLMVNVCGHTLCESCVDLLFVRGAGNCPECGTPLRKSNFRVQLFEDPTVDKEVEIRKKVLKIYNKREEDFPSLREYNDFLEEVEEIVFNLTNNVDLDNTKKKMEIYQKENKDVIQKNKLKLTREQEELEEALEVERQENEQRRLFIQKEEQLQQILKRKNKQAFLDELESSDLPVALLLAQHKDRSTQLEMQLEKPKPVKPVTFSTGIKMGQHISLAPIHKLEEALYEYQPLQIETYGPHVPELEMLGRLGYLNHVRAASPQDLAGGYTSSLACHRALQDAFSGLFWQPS

Row | Compound | CDK7 (20 nM) pIC50 [1] | CDK7 (5 nM) pIC50 [2] | melting point [°C]
1 | C[C@@H]1Cc2cnc(NC3CCOCC3)nc2CN1C(=O)[C@H]1CCN(C)C[C@@H]1c1ccccc1 [Compound 47] | >7.7 | 8.3 | 162.7
2 | C[C@@H]1Cc2cnc(NC3CCN(S(=O)(=O)N(C)C)CC3)nc2CN1C(=O)N1CCN(C)C[C@@H]1c1ccccc1 [Compound 211] | >7.7 | 7.88 | –
3 | C[C@@H]1Cc2cnc(NCc3ccn(C)n3)nc2CN1C(=O)N1CCN(C)C[C@@H]1c1ccccc1 [Compound 213] | 6.8 | 6.9 | –
4 | C[C@@H]1Cc2cnc(NC3CCS(=O)(=O)CC3)nc2CN1C(=O)N1CCN(C)C[C@@H]1c1ccccc1 [Compound 214] | 7.55 | 7.8 | –
